Assays:
Assay type in all cases: in vivo
[1] = test system: Mexican bean beetle; assay: topical application to Mexican bean beetle, fourth larval stage, maturation inhibition
Text: (§1) The compounds were applied in acetone solution at concentrations of 10 percent, 1 percent and 0.5 percent. One microliter of the acetone solution was applied to each test specimen. Ten test specimens were employed for each insect at each concentration and compared to ten acetone controls and ten zero controls. Approximately eight to ten days were required before results could be ascertained.
(§2) The insect species used in the test were Tenebrio molitor pupae; milkweed bug, fourth nymphal stage; wax moth, fifth larval stage; and Mexican bean beetle, fourth larval stage. At the completion of the test, each specimen was examined for the degree of juvenile and adult characteristics. The milkweed bug, wax moth, and Mexican bean beetle were assigned a numerical rating of 0 to 3 with 0 indicating no effect and 3 indicating the maximum effect or least adult development. Because of differences in morphology the Tenebrio rating scale was 0 to 4. In all cases a rating of 2 or higher means that the insect is incapable of reproduction. The number of specimens in each rating classification are given. In any test were the total of specimens reported is less than 10, those unreported died in some metamorphic stage. Such deaths indicate control, since the dead insects are not capable of reproducing.

[2] = test system: Tenebrio molitor pupae; assay: topical application to Tenebrio molitor pupae, maturation inhibition
Text: as §1, §2

[3] = test system: milkweed bug; assay: topical application to milkweed bug, fourth nymphal stage, maturation inhibition; details: rating scale 0-3
Text: as §1, §2

[4] = test system: wax moth; assay: topical application to wax moth, fifth larval stage, maturation inhibition
Text: as §1, §2

[5] = 10% in acetone, 1 microliter topical, rating scale 0 (no effect) to 3 (maximum)

| SMILES | number of specimens in rating 3 ([1]; 0.5%, rating scale 0-3) [specimens] | number of specimens in rating 3 ([1]; 1%, rating scale 0-3) [specimens] | number of specimens in rating 4 ([2]; 10%, rating scale 0-4) [specimens] | number of specimens in rating 0 ([3]; 0.5%) [specimens] | number of specimens in rating 1 ([3]; 0.5%) [specimens] | number of specimens in rating 2 ([3]; 0.5%) [specimens] | number of specimens in rating 0 ([3]; 1%) [specimens] | number of specimens in rating 3 ([3]; 1%) [specimens] | number of specimens in rating 0 ([2]; 0.5%, rating scale 0-4) [specimens] | number of specimens in rating 0 ([2]; 1%, rating scale 0-4) [specimens] | number of specimens in rating 3 ([3]; 10%) [specimens] | number of specimens in rating 0 ([4]; 0.5%, rating scale 0-3) [specimens] | number of specimens in rating 0 ([4]; 1%, rating scale 0-3) [specimens] | number of specimens in rating 0 [4, 5] [specimens] | number of specimens in rating 3 ([1]; 10%, rating scale 0-3) [specimens] | also measured |
| --- | --- | --- | --- | --- | --- | --- | --- | --- | --- | --- | --- | --- | --- | --- | --- | --- |
| CCC1(C)OC1CCC(C)=CCCc1ccc2c(c1)OCO2 (stereo not drawn) [3,4-EPOXY-3,7-DIMETHYL-10-(3,4-METHYLENEDIOXYPHENYL)-7-DECENE] | 10 | 10 | 10 | 2 | 5 | 2 | 2 | 8 | – | – | – | – | – | – | – | number of specimens in rating 4 ([2]; 0.5%, rating scale 0-4): 10 specimens; number of specimens in rating 4 ([2]; 1%, rating scale 0-4): 10 specimens; number of specimens in rating 2 ([4]; 0.5%, rating scale 0-3): 1 specimens; number of specimens in rating 3 ([4]; 0.5%, rating scale 0-3): 9 specimens; number of specimens in rating 3 ([4]; 1%, rating scale 0-3): 10 specimens |
| CC(C)=CCC/C(C)=C/CCc1c(Cl)cccc1Cl [trans-9-(2,6-DICHLOROPHENYL)-2,6-DIMETHYL-2,6-NONADIENE] | – | – | – | 10 | – | – | 8 | – | 10 | 10 | 10 | 10 | 10 | 10 | – | number of specimens in rating 0 ([1]; 0.5%, rating scale 0-3): 10 specimens; number of specimens in rating 0 ([1]; 1%, rating scale 0-3): 9 specimens; number of specimens in rating 1 ([1]; 1%, rating scale 0-3): 1 specimens; number of specimens in rating 0 [1, 5]: 8 specimens; number of specimens in rating 1 ([1]; 10%, rating scale 0-3): 2 specimens; number of specimens in rating 0 ([2]; 10% in acetone, 1 microliter topical, rating scale 0 (no effect) to 4 (maximum)): 9 specimens |
| CC(C)=CCC/C(C)=C/CCc1ccccc1 [2,6-DIMETHYL-9-PHENYL-2,6-NONADIENE] | 10 | 10 | 5 | 8 | 1 | 1 | 2 | – | 7 | 6 | 9 | 10 | 10 | 10 | 10 | number of specimens in rating 1 ([2]; 0.5%, rating scale 0-4): 3 specimens; number of specimens in rating 1 ([2]; 1%, rating scale 0-4): 4 specimens; number of specimens in rating 2 ([2]; 10%, rating scale 0-4): 1 specimens; number of specimens in rating 3 ([2]; 10%, rating scale 0-4): 4 specimens; number of specimens in rating 1 ([3]; 1%): 1 specimens |
| CC(C)=CCC/C(C)=C/CCc1ccc(F)cc1 [trans-9-(4-FLUOROPHENYL)-2,6-DIMETHYL-2,6-NONADIENE] | 10 | 10 | 10 | – | – | 3 | – | 8 | 10 | 10 | 10 | 10 | 9 | 10 | 10 | number of specimens in rating 3 ([3]; 0.5%): 7 specimens; number of specimens in rating 2 ([3]; 1%): 2 specimens |

— patent US3962282A, “Juvenile hormone mimics” (priority 1974, dated 1976)
